We go through 2 molecules from paper PMC10629583, “Specific inhibition of an anticancer target, polo-like kinase 1, by allosterically dismantling its mechanism of substrate recognition” (Proceedings of the National Academy of Sciences of the …, 2023).

In series [1] the test system is 45 receptors and channels. The series can be described thus: PDSP off-target screen (whole panel). The class given is binding, human. An excerpt:
(§1) PDSP no. Compound Interactions (Ki, µM)
(§2) 60477 Allopole-A None observed.
(§3) trigger a secondary screen at that receptor.

The subject of another series is L363 cells. In words: MTS cell viability assay, L363 cells. It counts as cell-based. The conditions noted are these: 48 h treatment. On the technique in general: Formazan colour is commonly taken as a measure of viable cells.
Another series deals with T1, M4 (Homo sapiens, UniProt P08173).
T1 sequence (P08173 1-479): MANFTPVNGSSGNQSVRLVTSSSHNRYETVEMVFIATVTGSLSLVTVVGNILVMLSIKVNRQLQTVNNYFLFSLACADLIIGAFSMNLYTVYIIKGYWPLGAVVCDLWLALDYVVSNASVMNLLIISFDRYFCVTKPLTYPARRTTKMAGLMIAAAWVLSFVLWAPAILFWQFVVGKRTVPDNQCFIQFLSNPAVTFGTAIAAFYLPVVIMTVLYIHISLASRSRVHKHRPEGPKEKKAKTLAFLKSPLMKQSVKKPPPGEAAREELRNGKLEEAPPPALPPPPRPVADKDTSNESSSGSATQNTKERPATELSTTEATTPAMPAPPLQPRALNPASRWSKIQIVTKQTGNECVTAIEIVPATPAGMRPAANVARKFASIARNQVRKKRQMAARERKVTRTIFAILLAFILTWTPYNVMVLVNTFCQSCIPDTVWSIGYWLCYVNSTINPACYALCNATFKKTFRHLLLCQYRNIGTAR
The series can be described thus: PDSP off-target binding screen. The following applies: for inhibition at 10 µM: read-out: Primary screen AVE(%inhib)±SD; for Ki: read-out: Secondary screen Ki.
Excerpt: as §1, §2, §3

In a further series the target is T2, Alpha1D (Homo sapiens, UniProt P25100).
T2 sequence (P25100 1-572): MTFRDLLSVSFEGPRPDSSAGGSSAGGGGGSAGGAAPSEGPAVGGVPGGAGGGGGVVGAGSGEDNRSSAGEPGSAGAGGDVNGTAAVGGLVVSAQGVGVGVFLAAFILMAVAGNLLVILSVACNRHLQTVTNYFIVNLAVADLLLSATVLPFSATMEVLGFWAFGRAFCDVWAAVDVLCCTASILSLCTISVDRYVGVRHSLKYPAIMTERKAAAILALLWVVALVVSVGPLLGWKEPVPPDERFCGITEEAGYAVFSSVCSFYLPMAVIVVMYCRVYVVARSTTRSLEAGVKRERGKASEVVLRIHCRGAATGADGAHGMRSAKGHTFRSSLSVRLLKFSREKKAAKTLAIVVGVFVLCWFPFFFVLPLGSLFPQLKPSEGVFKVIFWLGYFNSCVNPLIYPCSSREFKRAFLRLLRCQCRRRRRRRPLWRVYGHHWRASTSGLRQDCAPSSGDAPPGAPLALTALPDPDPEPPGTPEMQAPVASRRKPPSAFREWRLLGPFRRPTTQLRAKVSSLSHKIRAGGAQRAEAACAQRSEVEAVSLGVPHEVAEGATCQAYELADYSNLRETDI
In words: PDSP off-target binding screen. The conditions noted are these: for inhibition at 10 µM: read-out: Primary screen AVE(%inhib)±SD; for Ki: read-out: Secondary screen Ki.
Excerpt: as §1, §2, §3

For the next series, the target named is Beta2 (Homo sapiens, UniProt P07550). In words: PDSP off-target binding screen. The conditions noted are these: for inhibition at 10 µM: read-out: Primary screen AVE(%inhib)±SD; for Ki: read-out: Secondary screen Ki.
Sequence of Beta2 (P07550 whole entry): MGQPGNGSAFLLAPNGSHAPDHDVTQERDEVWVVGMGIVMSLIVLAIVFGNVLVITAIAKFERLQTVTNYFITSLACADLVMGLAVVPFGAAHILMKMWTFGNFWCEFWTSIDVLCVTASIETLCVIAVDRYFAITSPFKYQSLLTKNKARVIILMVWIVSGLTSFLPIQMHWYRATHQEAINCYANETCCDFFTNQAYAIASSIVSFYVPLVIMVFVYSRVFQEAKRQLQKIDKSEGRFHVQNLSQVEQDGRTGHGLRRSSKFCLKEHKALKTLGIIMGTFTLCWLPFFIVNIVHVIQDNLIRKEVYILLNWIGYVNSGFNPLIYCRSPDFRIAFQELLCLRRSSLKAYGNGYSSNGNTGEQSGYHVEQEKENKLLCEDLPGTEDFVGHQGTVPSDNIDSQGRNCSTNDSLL
Excerpt: as §1, §2, §3

The target in the next series is Beta1 (Homo sapiens, UniProt P08588). In words: PDSP off-target binding screen. The following applies: for inhibition at 10 µM: read-out: Primary screen AVE(%inhib)±SD; for Ki: read-out: Secondary screen Ki.
Sequence of Beta1 (P08588 whole entry): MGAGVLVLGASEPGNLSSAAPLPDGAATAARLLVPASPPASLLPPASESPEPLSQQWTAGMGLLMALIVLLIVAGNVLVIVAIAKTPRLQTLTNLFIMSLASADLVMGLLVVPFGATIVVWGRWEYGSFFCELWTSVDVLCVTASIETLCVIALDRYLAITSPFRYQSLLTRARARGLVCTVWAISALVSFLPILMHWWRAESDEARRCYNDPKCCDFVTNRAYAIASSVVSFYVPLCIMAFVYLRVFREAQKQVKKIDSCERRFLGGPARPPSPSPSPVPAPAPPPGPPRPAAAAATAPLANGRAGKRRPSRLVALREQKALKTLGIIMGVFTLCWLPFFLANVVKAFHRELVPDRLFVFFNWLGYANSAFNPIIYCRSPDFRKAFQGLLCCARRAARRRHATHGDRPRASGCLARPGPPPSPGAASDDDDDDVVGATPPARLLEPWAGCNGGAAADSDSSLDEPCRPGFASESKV
Excerpt: as §1, §2, §3

The next series has as its target MOR (Homo sapiens, UniProt P35372). The series can be described thus: PDSP off-target binding screen. The conditions noted are these: for inhibition at 10 µM: read-out: Primary screen AVE(%inhib)±SD; for Ki: read-out: Secondary screen Ki.
Excerpt: as §1, §2, §3

For another series, the target named is DOR (Homo sapiens, UniProt P41143). In words: PDSP off-target binding screen. The following applies: for inhibition at 10 µM: read-out: Primary screen AVE(%inhib)±SD; for Ki: read-out: Secondary screen Ki.
Sequence of DOR (P41143 whole entry): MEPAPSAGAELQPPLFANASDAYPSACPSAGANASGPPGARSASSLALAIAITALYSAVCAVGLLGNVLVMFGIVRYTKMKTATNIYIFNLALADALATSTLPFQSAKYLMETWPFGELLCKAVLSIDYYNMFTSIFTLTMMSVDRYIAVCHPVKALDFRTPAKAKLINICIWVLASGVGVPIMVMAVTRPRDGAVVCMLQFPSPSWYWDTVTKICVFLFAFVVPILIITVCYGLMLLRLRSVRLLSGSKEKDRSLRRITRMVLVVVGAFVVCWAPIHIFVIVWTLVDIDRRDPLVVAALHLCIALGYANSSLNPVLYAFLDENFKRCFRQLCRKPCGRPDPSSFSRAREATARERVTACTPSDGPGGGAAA
Excerpt: as §1, §2, §3

A further series deals with T3, D4 (Homo sapiens, UniProt P21917).
T3 sequence (P21917 1-419): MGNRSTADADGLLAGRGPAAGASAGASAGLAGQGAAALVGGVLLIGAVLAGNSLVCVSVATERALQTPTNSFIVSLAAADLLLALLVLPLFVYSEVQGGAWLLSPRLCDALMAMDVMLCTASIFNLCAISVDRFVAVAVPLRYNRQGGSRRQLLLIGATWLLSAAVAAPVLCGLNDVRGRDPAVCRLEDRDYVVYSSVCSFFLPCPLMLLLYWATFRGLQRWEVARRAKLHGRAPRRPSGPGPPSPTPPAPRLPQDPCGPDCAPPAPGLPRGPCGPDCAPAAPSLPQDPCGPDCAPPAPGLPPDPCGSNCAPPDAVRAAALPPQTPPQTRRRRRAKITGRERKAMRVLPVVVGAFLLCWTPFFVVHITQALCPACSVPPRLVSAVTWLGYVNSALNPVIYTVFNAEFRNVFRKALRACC
In words: PDSP off-target binding screen. The conditions noted are these: for inhibition at 10 µM: read-out: Primary screen AVE(%inhib)±SD; for Ki: read-out: Secondary screen Ki.
Excerpt: as §1, §2, §3

The next series addresses T4, 5-HT1A (Homo sapiens, UniProt P08908).
T4 construct: NIMH Psychoactive Drug Screening Program (UNC)
T4 sequence (P08908 1-422): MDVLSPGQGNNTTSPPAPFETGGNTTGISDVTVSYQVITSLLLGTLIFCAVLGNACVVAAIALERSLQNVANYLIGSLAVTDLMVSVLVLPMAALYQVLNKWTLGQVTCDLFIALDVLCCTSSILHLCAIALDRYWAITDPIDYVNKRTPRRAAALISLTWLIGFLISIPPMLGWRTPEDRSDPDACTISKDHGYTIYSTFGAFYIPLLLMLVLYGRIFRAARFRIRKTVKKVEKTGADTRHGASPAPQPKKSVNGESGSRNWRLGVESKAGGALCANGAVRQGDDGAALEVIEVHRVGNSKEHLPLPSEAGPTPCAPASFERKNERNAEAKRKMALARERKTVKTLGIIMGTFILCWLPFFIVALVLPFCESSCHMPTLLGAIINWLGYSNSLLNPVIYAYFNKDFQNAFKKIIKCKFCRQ
The series can be described thus: PDSP off-target binding screen. The conditions noted are these: for inhibition at 10 µM: read-out: Primary screen AVE(%inhib)±SD; for Ki: read-out: Secondary screen Ki.
Excerpt: as §1, §2, §3

In a further series the target is 5-HT2B (Homo sapiens, UniProt P41595). In words: PDSP off-target binding screen. The following applies: for inhibition at 10 µM: read-out: Primary screen AVE(%inhib)±SD.
Sequence of 5-HT2B (P41595 whole entry): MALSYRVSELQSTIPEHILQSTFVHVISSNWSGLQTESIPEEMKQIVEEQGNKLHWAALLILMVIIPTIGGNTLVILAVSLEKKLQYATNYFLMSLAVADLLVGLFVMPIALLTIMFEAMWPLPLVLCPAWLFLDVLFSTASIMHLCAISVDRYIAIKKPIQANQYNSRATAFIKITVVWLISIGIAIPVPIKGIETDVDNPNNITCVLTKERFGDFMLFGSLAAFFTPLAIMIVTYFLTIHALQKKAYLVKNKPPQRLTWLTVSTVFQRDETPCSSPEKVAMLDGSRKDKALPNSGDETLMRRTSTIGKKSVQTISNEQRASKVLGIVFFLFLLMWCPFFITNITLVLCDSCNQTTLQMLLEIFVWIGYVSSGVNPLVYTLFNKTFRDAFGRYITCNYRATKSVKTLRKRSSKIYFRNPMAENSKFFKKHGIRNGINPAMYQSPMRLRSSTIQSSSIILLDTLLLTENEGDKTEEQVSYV
In the next series the target is 5-HT2A (Homo sapiens, UniProt P28223). In words: PDSP off-target binding screen. The following applies: for inhibition at 10 µM: read-out: Primary screen AVE(%inhib)±SD.
Sequence of 5-HT2A (P28223 whole entry): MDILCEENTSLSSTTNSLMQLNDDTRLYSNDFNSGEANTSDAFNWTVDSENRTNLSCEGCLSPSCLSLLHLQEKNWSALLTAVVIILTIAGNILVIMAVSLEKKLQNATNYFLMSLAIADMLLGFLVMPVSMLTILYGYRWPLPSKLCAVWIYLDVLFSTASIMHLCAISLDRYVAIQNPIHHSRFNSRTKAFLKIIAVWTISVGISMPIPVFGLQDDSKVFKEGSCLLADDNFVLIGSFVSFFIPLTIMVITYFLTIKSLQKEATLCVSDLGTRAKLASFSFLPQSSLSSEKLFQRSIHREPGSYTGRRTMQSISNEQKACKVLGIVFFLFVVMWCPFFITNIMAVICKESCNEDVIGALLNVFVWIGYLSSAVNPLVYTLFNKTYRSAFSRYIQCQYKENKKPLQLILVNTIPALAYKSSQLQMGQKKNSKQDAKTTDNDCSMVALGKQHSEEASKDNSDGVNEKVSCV

“Also recorded” adds a separate entry of the source.

Sequence of MOR (P35372 whole entry): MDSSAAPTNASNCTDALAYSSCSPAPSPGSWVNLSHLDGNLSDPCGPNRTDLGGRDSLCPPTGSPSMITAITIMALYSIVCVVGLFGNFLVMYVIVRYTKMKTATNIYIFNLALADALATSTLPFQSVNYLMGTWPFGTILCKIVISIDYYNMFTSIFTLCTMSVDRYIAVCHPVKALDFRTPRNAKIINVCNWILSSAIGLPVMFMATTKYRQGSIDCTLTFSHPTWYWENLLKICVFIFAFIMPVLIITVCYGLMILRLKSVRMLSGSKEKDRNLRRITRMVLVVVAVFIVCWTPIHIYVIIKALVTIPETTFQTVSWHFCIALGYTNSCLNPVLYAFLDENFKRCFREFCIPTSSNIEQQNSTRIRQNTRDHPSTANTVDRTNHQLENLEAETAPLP

One may read the Ki as a dissociation constant, usually derived from enzyme kinetics or from competition with a known ligand. As to `O=c1c2sc(Cl)cc2n2c(=S)[nH]nc2n1CC1CC1` [Allopole-A], the “Interactions (Ki, µM), summary of PDSP screen (in words)” value in series [1] is reported as “None observed; also recorded: no interactions”. Further, the figures for the “Cell efficacy (GI50) Mean ± SD” value in the series with L363 cells and in the series with L363 cells (listed as 19) were “failed to induce any significant antiproliferation effect” and “N. S”, respectively. The inhibition at 10 µM was -8.8 ± 4.8% on M4; -9.9 ± 23.4% at Alpha1D; -2.1 ± 19.7% on Beta2; -6.2 ± 19.4% on Beta1; 30.8 ± 47.5% on MOR; -13.5 ± 6.8% on DOR. Moreover, the inhibition at 10 µM on D4 was -24.3 ± 4.4%; at 5-HT1A, -20 ± 27.4%; at 5-HT2B it was -17.7 ± 11.2%; at 5-HT2A, 37 ± 10.4%. Besides, the inhibition constant Ki on M4, on Alpha1D, on Beta2, on Beta1, at MOR and at DOR was > 10 µM each time. In addition, the Ki on D4, at 5-HT1A, on 5-HT2B and at 5-HT2A was > 10 µM throughout.

The term GI50 denotes the concentration at which growth is held to half of that of the control. Consider `Cn1cnc([N+](=O)[O-])c1Sc1nnc2n(CC3CC3)c(=O)c3sc(Cl)cc3n12` [Allopole], for which, in series [1], the “Interactions (Ki, µM), summary of PDSP screen (in words)” value is reported as “only two weak µM interactions”. In the series on L363 cells (Homo sapiens, L-363, 48 h, read-out: Cell efficacy (GI50) Mean ± SD), the GI50 turned out to be 4.1 µM. Also, the inhibition at 10 µM on M4 was -8.7 ± 9.5%; at Alpha1D, -15.1 ± 19.8%; at Beta2 it was 0.1 ± 10.6%; on Beta1, 67.3 ± 49.1%; at MOR, 40.6 ± 51%; on DOR, -1 ± 4.8%. Besides, the inhibition at 10 µM at D4 is 12.6 ± 4.9%; at 5-HT1A it was -12.8 ± 19.7%; at 5-HT2B, -0.5 ± 5%; on 5-HT2A, 52.4 ± 11.8%. Moreover, the inhibition constant Ki on M4, on Alpha1D, on Beta2, on Beta1, on MOR and on DOR was > 10 µM each time. Also, the Ki was > 10 µM on D4, > 10 µM at 5-HT1A, > 10 µM on 5-HT2B and 9.2 µM at 5-HT2A.
